# Assay results reported in patent US10781209B2, “1H-pyrrolo[2,3-c]pyridin-7(6H)-ones and pyrazolo[3,4-c]pyridin-7(6H)-ones as inhibitors of BET proteins” (Incyte Corporation, priority 2014, dated 2020).
# System: KMS.12.BM cells
# Test: KMS.12.BM cell viability assay (Cell Titer-GLO, ATP quantitation)
# Type: cell-based
# Details: 72 h, human myeloma cell line, 3 days, concentration required for 50% cell death
# Description: KMS.12.BM cell line (human myeloma) was purchased from JCRB (Osaka, Japan) and maintained in RPMI with 10% FBS culture medium. To measure the cytotoxic activity of the compounds through ATP quantitation, the KMS.12.BM cells are plated in the RPMI culture medium at 5000 cells/well/per 100 μL into a 96-well polystyrene clear black tissue culture plate (Greiner-bio-one through VWR, NJ), in the presence or absence of a concentration range of test compounds. After 3 days, […] Cell Titer-GLO Luminescent (Promega, Madison, Wis.) cell culture agent is added to each well for 10 minutes at room temperature to stabilize the luminescent signal. This determines the number of viable cells in culture based on quantitation of the ATP present, which signals the presence of metabolically active cells. Luminescence is measured with the Top Count 384 (Packard Bioscience through Perkin Elmer, Boston, Mass.). Compound inhibition is determined relative to cells cultured with no drug and the IC50 is reported as the compound concentration required for 50% cell death.
smiles,measurement,value
"Cn1cc(-c2cccc3c2OC(c2ccccn2)C(=O)N3)c2cc[nH]c2c1=O (stereo not shown) [Example 5, 8-(6-methyl-7-oxo-6,7-dihydro-1H-pyrrolo[2,3-c]pyridin-4-yl)-2-pyridin-2-yl-2H-1,4-benzoxazin-3(4H)-one 2,2,2-trifluoroacetate]",IC50,≤ 1000 nM
